Experimental data: patent US7671085B2, “Non-steroidal farnesoid X receptor modulators and methods for the use thereof” (The Salk Institute for Biological Studies, priority 2002, dated 2010)

Assays:
mouse FXR and human RXR = molecular target: T1, mouse FXR and human RXR (Mus musculus, UniProt Q60641); experiment: CV-1 transient transfection reporter gene assay, TK minimal promoter with ECRE or ER-8 FXRE; format: cell-based; conditions: CV-1 cells; for concentration at which maximal activity is achieved: ECRE and ER-8 reporters; for activation of ECRE FXRE reporter: six copies of ECRE, TK minimal promoter; for activation of ER-8 FXRE reporter: two copies of ER-8, TK minimal promoter
T1 construct: expressed in transfected cells; host or cells: CV-1 cells
T1 sequence (Q60641 1-488): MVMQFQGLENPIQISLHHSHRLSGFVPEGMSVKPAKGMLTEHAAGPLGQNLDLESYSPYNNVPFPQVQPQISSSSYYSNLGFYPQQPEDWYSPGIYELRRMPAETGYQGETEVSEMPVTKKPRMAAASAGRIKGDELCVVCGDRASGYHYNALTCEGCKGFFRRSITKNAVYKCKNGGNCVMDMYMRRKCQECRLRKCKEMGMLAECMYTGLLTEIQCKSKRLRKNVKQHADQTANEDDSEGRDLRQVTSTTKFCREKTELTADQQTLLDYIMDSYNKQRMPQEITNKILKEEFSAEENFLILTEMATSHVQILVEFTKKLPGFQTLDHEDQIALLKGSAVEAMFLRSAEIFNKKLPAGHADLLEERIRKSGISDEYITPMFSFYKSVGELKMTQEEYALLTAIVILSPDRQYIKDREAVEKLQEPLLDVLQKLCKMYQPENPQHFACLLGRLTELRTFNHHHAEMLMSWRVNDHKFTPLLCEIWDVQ
T1 sequence (P19793 1-462 partner): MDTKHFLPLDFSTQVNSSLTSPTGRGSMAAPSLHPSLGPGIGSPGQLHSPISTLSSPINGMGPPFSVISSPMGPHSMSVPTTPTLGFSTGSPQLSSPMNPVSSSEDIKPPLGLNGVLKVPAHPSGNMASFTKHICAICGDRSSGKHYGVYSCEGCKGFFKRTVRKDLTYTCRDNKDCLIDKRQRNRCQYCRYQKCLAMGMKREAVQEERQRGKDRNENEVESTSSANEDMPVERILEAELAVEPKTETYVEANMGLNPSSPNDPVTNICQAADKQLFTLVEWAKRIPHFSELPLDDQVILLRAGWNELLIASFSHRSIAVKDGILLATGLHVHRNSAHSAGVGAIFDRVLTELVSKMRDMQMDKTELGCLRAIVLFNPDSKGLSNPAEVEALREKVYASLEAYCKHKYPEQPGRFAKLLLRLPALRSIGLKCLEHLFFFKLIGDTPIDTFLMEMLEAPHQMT
Protocol: The ability of these compounds to activate the receptor in a number of different cell-based reporter gene assays was then determined. […] CV-1 cells were transiently transfected with an expression plasmid for mouse FXR and human RXR with a thymidine kinase (TK) minimal promoter reporter vector containing either no copies or six copies of the ecdysone response element (ECRE), a well-characterized FXR response element (FXRE). In addition, two copies of the recently identified FXRE everted repeat separated by 8 nucleotides (ER-8) was also studied (see, for example, Laffitte et al. (2000). Identification of the DNA binding specificity and potential target genes for the farnesoid X-activated receptor. J Biol Chem. 275(14), 10638-47; Kast et al. (2002). Regulation of multidrug resistance-associated protein 2 (ABCC2) by the nuclear receptors pregnane X receptor, farnesoid X-activated receptor, and constitutive androstane receptor. J Biol Chem. 277(4), 2908-15).

[1] = tested on: IBABP mRNA in HT29-FXRFL cells; experiment: Northern blot of IBABP mRNA in HT29 stable cell lines; format: cell-based, Human; conditions: for concentration for maximal induction of IBABP mRNA: overnight treatment
Protocol: HepG2 or HT29-derived cell lines were typically cultured in medium containing superstripped FBS for 24 hr before the addition of a ligand or DMSO (vehicle) for an additional 24-48 hr. Total RNA was isolated using TRIzol reagent and was resolved (10 μg/lane) on a 1% agarose, 2.2 M formaldehyde gel, transferred to a nylon membrane (Hybond N^+; Amersham Biosciences, Inc.), and cross-linked to the membrane with UV light.
cDNA probes were radiolabeled with [α-^32P]dCTP using the highprime labeling kit (Amersham Biosciences, Inc.). Membranes were hybridized using the QuikHyb hybridization solution (Stratagene, La Jolla, Calif.) according to the manufacturer's protocol. Blots were normalized for variations of RNA loading by hybridization to a control probe, either, 18 S ribosomal cDNA, or the ribosomal protein 36B4. The RNA levels were quantitated using a PhosphorImager (ImageQuant software; Molecular Dynamics, Inc., Sunnyvale, Calif.) in addition to being exposed to X-ray film.
Human colon cells HT29 (FXR null until differentiated) were infected with retroviral vectors that expressed either FXR constructs and the puromycin-resistant gene or the puromycin-resistant gene alone. Puromycin resistant cells were isolated and pooled cell populations were propagated that harbored either the vector alone (HT29-BABE), overexpressed FXR full length (HT29-FXRFL), a non-functional FXR truncated at the AF2 region (HT29-FXR-AF2), or a constitutively active FXR that has the VP16 activation domain fused N-terminal of the protein (HT29-VP16-FXR). Confirmation of the successful establishment of the different stable cell lines was established via northern blot analysis of FXR message levels in the cells.
These observations verify the usefulness of this colon cell model system for studying the induction of FXR target genes.
The ability of the novel compounds identified herein to induce IBABP gene expression in this cell system was also examined. Total RNA from HT29 stable cells treated overnight with fexaramine, fexarine and fexarene was probed for IBABP gene expression.

[2] = HT29-BABE or HT29-FXR-AF2 cell lines

Structure (SMILES)	concentration at which maximal activity is achieved (mouse FXR and human RXR)	activation of ECRE FXRE reporter (mouse FXR and human RXR)	activation of ER-8 FXRE reporter (mouse FXR and human RXR)	induction of IBABP mRNA, in words [1, 2]	induction of IBABP mRNA, in words ([1]; HT29-FXRFL cells)	concentration for maximal induction of IBABP mRNA ([1]; HT29-FXRFL cells)
COC(=O)C=Cc1cccc(N(Cc2ccc(C=Cc3ccccc3)cc2)C(=O)C2CCCCC2)c1 [Compound 121]	1 µM	100 fold	4 fold	No induction	induced expression of the IBABP mRNA	1 µM
COC(=O)/C=C/c1cccc(N(Cc2ccc(-c3ccc4c(c3)OCO4)cc2)C(=O)C2CCCCC2)c1 [Compound 244]	1 µM	100 fold	4 fold	No induction	induced expression of the IBABP mRNA	1 µM
COC(=O)/C=C/c1cccc(N(Cc2ccc(-c3ccc(N(C)C)cc3)cc2)C(=O)C2CCCCC2)c1 [Compound 259]	1 µM	100 fold	4 fold	No induction	induced expression of the IBABP mRNA	1 µM
